Activity calls are given as the source filed them. No rule for the calls is given here.
Target: Chaperone protein DnaK (Escherichia coli (strain K12)) (UniProt P0A6Y8)
Experiment: binders of DnaK substrate-binding domain, biophysical, NMR, chaperone (AID 1033)
Conditions: Purified DnaK SBD, NMR ligand binding

Sequence of Chaperone protein DnaK (Escherichia coli (strain K12)) (P0A6Y8 whole entry, looked up, the tested form may be a part): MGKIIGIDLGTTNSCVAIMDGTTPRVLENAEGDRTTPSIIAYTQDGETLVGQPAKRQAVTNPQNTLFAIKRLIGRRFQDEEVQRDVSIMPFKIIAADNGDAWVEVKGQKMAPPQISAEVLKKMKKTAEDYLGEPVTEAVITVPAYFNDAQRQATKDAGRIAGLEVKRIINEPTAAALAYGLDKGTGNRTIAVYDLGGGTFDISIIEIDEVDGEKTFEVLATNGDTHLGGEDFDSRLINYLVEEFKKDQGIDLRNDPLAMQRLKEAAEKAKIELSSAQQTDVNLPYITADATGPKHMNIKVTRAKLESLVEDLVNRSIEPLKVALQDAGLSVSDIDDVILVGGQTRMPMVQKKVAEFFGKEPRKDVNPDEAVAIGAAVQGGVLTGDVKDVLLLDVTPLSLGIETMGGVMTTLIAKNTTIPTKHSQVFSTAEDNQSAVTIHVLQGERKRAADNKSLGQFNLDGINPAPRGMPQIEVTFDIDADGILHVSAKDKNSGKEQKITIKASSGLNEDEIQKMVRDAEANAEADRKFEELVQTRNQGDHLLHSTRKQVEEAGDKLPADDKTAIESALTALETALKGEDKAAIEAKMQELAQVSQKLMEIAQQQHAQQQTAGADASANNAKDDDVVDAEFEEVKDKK

## Nc1nc2ncc(=O)[nH]c2c(=O)[nH]1
  Kd: > 4 mM (inactive)

## Cc1nnc2sc(-c3csc4c3CCCC4)nn12
  Kd: > 4 mM (inactive)

## NC(=O)C12CC3CC(C1)C(=O)C(C3)C2
  Kd: > 4 mM (inactive)

## COc1ccc(-c2cc(=O)c3ccccc3o2)cc1OC
  Kd: > 4 mM (inactive)

## CCn1ccc(C(=O)Nc2nccs2)n1
  Kd: > 4 mM (inactive)

## CC[C@@H]1[C@@H](O)N2C3C[C@H]1C1C(O)[C@]4(C[C@@H]12)c1ccccc1N(C)[C@@H]34 (stereo not given in full)
  Kd: > 4 mM (inactive)

## O=C1NC(=O)/C(=C\c2ccncc2)S1
  Kd: > 4 mM (inactive)

## OC/C=C/c1ccc(O)c(O)c1
  Kd: > 4 mM (inactive)

## Nc1ccc(CN2CCS(=O)(=O)CC2)cc1
  Kd: > 4 mM (inactive)

## Cc1ccc(N2C(=O)CCC2=O)cc1
  Kd: > 4 mM (inactive)

## CNC(=O)c1cc2cccc(OC)c2oc1=O
  Kd: > 4 mM (inactive)

## CC(=O)c1c(C)nn(CC(=O)O)c1C
  Kd: > 4 mM (inactive)

## Cc1cc(NC(=O)c2cccc(N3C(=O)CCC3=O)c2)no1
  Kd: > 4 mM (inactive)

## O=C(O)c1cc2ccccc2o1
  Kd: > 4 mM (inactive)

## CC(=O)O[C@@H]1CC2C(C)(C)C=CC(=O)[C@]2(C)C2CC[C@@]3(C)[C@H](c4ccoc4)OC(=O)C4OC43[C@@]21C (stereo not given in full)
  Kd: > 4 mM (inactive)

## COc1ccccc1NS(=O)(=O)c1c[nH]c(=O)[nH]c1=O
  Kd: > 4 mM (inactive)

## NCCCCN=C(N)N
  Kd: > 4 mM (inactive)

## CCc1ccccc1NC(=O)c1ccoc1C
  Kd: > 4 mM (inactive)

## CN(C)N1C(=O)C2CCCCC2C1=O (stereo not given)
  Kd: > 4 mM (inactive)

## CCOC(=O)C1CCN(Cc2ccccc2)CC1
  Kd: > 4 mM (inactive)

## O=C(Nc1ccncc1)c1c(F)cccc1F
  Kd: > 4 mM (inactive)

## Cc1sc(N)c(C(N)=O)c1C
  Kd: > 4 mM (inactive)

## CC(C)(OC(=O)c1ccccc1)[C@@H]1Cc2cc3ccc(=O)oc3cc2O1
  Kd: > 4 mM (inactive)

## CNC(=O)Nc1cccc(C(F)(F)F)c1
  Kd: > 4 mM (inactive)

## Cn1c(CN2CC(c3ccccc3)CC2=O)n[nH]c1=S (stereo not given)
  Kd: > 4 mM (inactive)

## C1CCN2C[C@@H]3C[C@H](CN4CCCC[C@@H]34)[C@H]2C1
  Kd: > 4 mM (inactive)

## Cc1nn(C)c(N2CCOCC2)c1N
  Kd: > 4 mM (inactive)

## COC(=O)c1c(C)cc(OC(=O)c2c(C)cc(O)c(C=O)c2O)c(C)c1O
  Kd: > 4 mM (inactive)

## O=C(O)C1CSC2(CCCCC2)N1 (stereo not given)
  Kd: > 4 mM (inactive)

## NC(=O)NC1NC(=O)NC1=O (stereo not given)
  Kd: > 4 mM (inactive)

## O=C(O)CC1C(=O)NCCN1Cc1ccccc1 (stereo not given)
  Kd: > 4 mM (inactive)

## Cc1cc(=O)n2[nH]c(COc3ccccc3)nc2n1
  Kd: > 4 mM (inactive)

## CC1(C)CC(=O)c2cnn(-c3nc4ccccc4[nH]3)c2C1
  Kd: > 4 mM (inactive)

## CC(C)CCn1cnc2c1c(=O)n(C)c(=O)n2C
  Kd: > 4 mM (inactive)

## CC(C)=CC(=O)Nc1ccc2c(c1)OCO2
  Kd: > 4 mM (inactive)

## OC1CCN(Cc2ccc[nH]2)CC1
  Kd: > 4 mM (inactive)

## N[C@@H](CCC(=O)N[C@@H](CS)C(=O)NCC(=O)O)C(=O)O
  Kd: > 4 mM (inactive)

## Cn1c(O)c(/C=C2\C=CC=N2)c(=O)[nH]c1=O
  Kd: > 4 mM (inactive)

## CC(=O)c1c(C)nc2ccccc2c1N
  Kd: > 4 mM (inactive)

## CC(C)NC1CS(=O)(=O)CC1O (stereo not given)
  Kd: > 4 mM (inactive)

## S=c1nc(C2CC2)[nH]c2ccccc12
  Kd: > 4 mM (inactive)

## Cn1nc(C(=O)NC2CCCCC2)c2ccccc2c1=O
  Kd: > 4 mM (inactive)

## O=C(NN1CCOCC1)c1ccccc1F
  Kd: > 4 mM (inactive)

## O=C1CCNc2ccccc2N1
  Kd: > 4 mM (inactive)

## CN(C)C(=O)C12CCC(C)(C(=O)O1)C2(C)C (stereo not given)
  Kd: > 4 mM (inactive)

## COc1ccc2c(c1OC)C(=O)OC2[C@H]1c2c(cc3c(c2OC)OCO3)CCN1C (stereo not given in full)
  Kd: > 4 mM (inactive)

## CSc1ccccc1NC(=O)c1cccnc1
  Kd: > 4 mM (inactive)

## O=C1NC(=S)N/C1=C\c1ccccc1
  Kd: > 4 mM (inactive)

## Cc1sc2nc(SCC(=O)N(C)C)[nH]c(=O)c2c1C
  Kd: > 4 mM (inactive)

## COc1cc2nc(-c3cccs3)oc(=O)c2cc1OC
  Kd: > 4 mM (inactive)

## COC(=O)c1ccccc1NC(=O)c1cc[n+]([O-])cc1
  Kd: > 4 mM (inactive)

## COC(=O)[C@]1(C)CCC[C@]2(C)c3ccc(C(C)C)cc3C(=O)CC12 (stereo not given in full)
  Kd: > 4 mM (inactive)

## CC(=O)Oc1ccc(/C=C/c2cc(OC(C)=O)cc(OC(C)=O)c2)cc1
  Kd: > 4 mM (inactive)

## NCc1ccc2c(c1)OCO2
  Kd: > 4 mM (inactive)

## Cc1nc2ccccc2c(=O)n1/N=C/c1ccncc1
  Kd: > 4 mM (inactive)

## O=C(c1ccccc1-c1ccccc1)N1CCOCC1
  Kd: > 4 mM (inactive)

## C[C@]12C=CC(=O)C=C1CCC1C2CC[C@]2(C)C(=O)CCC12 (stereo not given in full)
  Kd: > 4 mM (inactive)

## CN1CCn2c1nc(N1CCCCC1)nc2=O
  Kd: > 4 mM (inactive)

## Cc1cc(C)cc(OC(=O)N2CCOCC2)c1
  Kd: > 4 mM (inactive)

## O=C(CCc1ccc(O)cc1)c1c(O)cc(O)cc1O
  Kd: > 4 mM (inactive)

## O=[n+]1c(CO)c(CO)n([O-])c2ccccc21
  Kd: > 4 mM (inactive)

## CC12CCCC(O)(C1)C1CC(C)(C)C1CC2 (stereo not given)
  Kd: > 4 mM (inactive)

## C[C@@H]1C(=O)OC2[C@H](O)C34[C@@H]5OC(=O)[C@@]3(O[C@@H]3OC(=O)[C@H](O)[C@@]34[C@H](C(C)(C)C)[C@H]5O)[C@]21O (stereo not given in full)
  Kd: > 4 mM (inactive)

## CC(=O)NC(=S)Nc1nc2ccccc2n1C(C)=O
  Kd: > 4 mM (inactive)

## O=C(O)c1ccc2c(c1)CCO2
  Kd: > 4 mM (inactive)

## CN(C)c1nc(N2CCOCC2)c2cnn(C)c2n1
  Kd: > 4 mM (inactive)

## Cc1ccc(C)c(C(=O)n2cnnc2N)c1
  Kd: > 4 mM (inactive)

## Cc1nc(CC(=O)O)c(-c2ccccc2)s1
  Kd: > 4 mM (inactive)

## Cc1c(F)cccc1NS(=O)(=O)c1ccccc1C#N
  Kd: > 4 mM (inactive)

## Nc1ncnc(NCCCO)c1[N+](=O)[O-]
  Kd: > 4 mM (inactive)

## Cc1n[nH]c(C)c1CC(=O)O
  Kd: > 4 mM (inactive)

## O=S1(=O)C=CC(Nc2ccccc2)C1 (stereo not given)
  Kd: > 4 mM (inactive)

## Cc1ccn(S(=O)(=O)c2ccc(F)cc2)n1
  Kd: > 4 mM (inactive)

## CC(=O)c1c(C)nc(C)nc1NC(=O)C(C)C
  Kd: > 4 mM (inactive)

## CCC(=O)n1nc(-c2ccco2)nc1N
  Kd: > 4 mM (inactive)

## Cc1c(C(=O)Nc2ccccc2)sc(N)c1C(N)=O
  Kd: > 4 mM (inactive)

## Cn1cnnc1SCC(=O)Nc1nccs1
  Kd: > 4 mM (inactive)

## CCOC(=O)c1c(C)cc(OC)cc1O
  Kd: > 4 mM (inactive)

## O=C(O)c1ccc2ccccc2n1
  Kd: > 4 mM (inactive)

## COc1ccc(-c2oc3c(CC=C(C)C)c(O[C@@H]4O[C@H](CO)[C@@H](O)[C@H](O)[C@H]4O)cc(O)c3c(=O)c2O[C@@H]2O[C@@H](C)[C@H](O)[C@@H](O)[C@H]2O)cc1
  Kd: > 4 mM (inactive)

## Cc1n[nH]c(=S)[nH]c1=O
  Kd: > 4 mM (inactive)

## COc1ccc(N2C(=N)C(C)(C)NC2=O)cc1
  Kd: > 4 mM (inactive)

## O=c1ccc2nc3ccccc3c(=O)n2[nH]1
  Kd: > 4 mM (inactive)

## O=C1NC(=O)/C(=C\c2ccco2)S1
  Kd: > 4 mM (inactive)

## COC1C(O)C(O[C@H]2CC[C@]3(C=O)C4C(CC[C@]3(O)C2)[C@@]2(O)CC[C@H](C3=CC(=O)OC3)[C@@]2(C)C[C@H]4OC(C)=O)OC(C)C1OC(C)=O (stereo not given in full)
  Kd: > 4 mM (inactive)

## CSc1nc(C)cc(-n2ccc(=O)[nH]c2=O)n1
  Kd: > 4 mM (inactive)

## Cc1ccc(SCc2cc(=O)n3[nH]cnc3n2)cc1
  Kd: > 4 mM (inactive)

## CN1CCN(CC(=O)NC2CCCCC2)CC1
  Kd: > 4 mM (inactive)

## COc1cc2c(cc1OC)[C@@]13CCN4CC5=CCOC6CC(=O)N2C1[C@H]6[C@H]5C[C@H]43 (stereo not given in full)
  Kd: > 4 mM (inactive)

## CCn1cnc2scc(-c3ccccc3)c2c1=O
  Kd: > 4 mM (inactive)

## NC1=NC(=O)/C(=C/c2cccs2)S1
  Kd: > 4 mM (inactive)

## Oc1cc2c(cc1O)C1c3ccc(O)c(O)c3OCC1(O)C2 (stereo not given)
  Kd: > 4 mM (inactive)

## Cn1ccnc1SCc1cc(=O)[nH]c2ccccc12
  Kd: > 4 mM (inactive)

## COc1ccc2[nH]cc(CN(C)C)c2c1
  Kd: > 4 mM (inactive)

## CC1CCN(C(=O)c2cc3ccccc3o2)CC1
  Kd: > 4 mM (inactive)

## COc1cccc(NC(=O)c2cccs2)c1
  Kd: > 4 mM (inactive)

## CCOC(=O)c1cnc2cc(C)nn2c1C
  Kd: > 4 mM (inactive)

## Cc1c(C(=O)NC2=NCCS2)oc2ccccc12
  Kd: > 4 mM (inactive)

## Cn1c(=O)c2[nH]c(Nc3ccccc3)nc2n(C)c1=O
  Kd: > 4 mM (inactive)

## Cn1nnc2cc(C(=O)NC3=NCCS3)ccc21
  Kd: > 4 mM (inactive)

## Nc1cc(F)ccc1-n1ccnc1
  Kd: > 4 mM (inactive)

## NS(=O)(=O)c1ccc(NC(=S)NC2CC2)cc1
  Kd: > 4 mM (inactive)

## Cc1occc1C(=O)Nc1nnc(C2CCCCC2)s1
  Kd: > 4 mM (inactive)

## OC[C@H]1O[C@@H](O[C@H]2[C@H](O)[C@@H](O)[C@@H](O)O[C@@H]2CO)[C@H](O)[C@@H](O)[C@@H]1O
  Kd: > 4 mM (inactive)

## COc1ccc([C@H]2COc3c(ccc(O)c3OC)C2)c(OC)c1O
  Kd: > 4 mM (inactive)

## Nc1ncnc2c1ncn2CCN1CCCCC1
  Kd: > 4 mM (inactive)

## N=Nc1c(O)[nH]c2ccccc12
  Kd: > 4 mM (inactive)

## C=CCCCCCCCCCCCC(O)CC(O)CO (stereo not given) (tested in a mixture with another compound)
  Kd: > 4 mM (inactive)

## COc1ccc(Cl)cc1NC(=O)c1ccco1
  Kd: > 4 mM (inactive)

## CC1=CCCC2C1(C)CCC(C)C2(C)CC/C(C)=C/C[n+]1cn(C)c2c(N)ncnc21 (stereo not given)
  Kd: > 4 mM (inactive)

## CCCCCC(=O)Cc1cc(O)cc(O)c1C(=O)Oc1cc(CC(=O)CCCCC)c(C(=O)O)c(OC)c1
  Kd: > 4 mM (inactive)

## O=C(NCc1n[nH]c(=O)c2ccccc12)C1CC1
  Kd: > 4 mM (inactive)

## CC(=O)Nc1nnc(-c2ccccn2)o1
  Kd: > 4 mM (inactive)

## CC(NC(=O)c1ccco1)c1ccc2c(c1)OCCO2 (stereo not given)
  Kd: > 4 mM (inactive)

## CN1CCC(NC(=S)NC2CC2)CC1
  Kd: > 4 mM (inactive)
